Tests used:
HFHC-fed WT mice = assay: HFHC-induced NAFLD in WT mice; type: in vivo
Text: (§1) WT and Sqle Tg mice were fed with normal diet (18% fat, 58% carbohydrate, 24% protein, 0% cholesterol) or high fat high cholesterol (HFHC: 43.7% fat, 36.6% carbohydrate, 19.7% protein, 0.203% cholesterol) diets (Specialty Feeds, Glen Forrest, Wash.) ad libitum for different time point to generate spontaneous NAFLD model and diet-induced NASH model. Sqle tg mice and their wild-type littermates (WT) were fed a high fat high cholesterol diet at the age of 6 weeks. At 17 weeks of age (Sqle tg mice) or 24 weeks of age (WT mice), the mice will be randomized into two group and treated with either vehicle or Terbinafine (80 mg/kg/d, oral gavage). After 8 (WT mice) or 9 weeks (Sqle tg mice) terbinafine treatment, mice will be sacrificed to examine the therapeutic effect of Terbinafine. Assessment of NAFLD: Liver histology were evaluated at sacrifice using H&E staining. Assessment of inflammation: Liver damage were determined using serum ALT and AST. PCR and cytokine arrays were used to evaluate expression of pro-inflammatory cytokines. Assessment of metabolic syndrome: Insulin tolerance tests and glucose tolerance tests will be determined as described above. 20 mg tissues were harvested, and liver […] Quantification kit (ab65341, Abcam) according to manufacturer's instructions. All experiments were conducted three times in triplicates. Results were shown as the means±SEM. The serum cholesterol, TG, ALT and AST level were detected by the Catalyst One Chemistry Analyzer according to the manufacturer's instructions (IDEXX, USA). Thirty microliters of serum from wild-type or Sqle tg mice were diluted to 90 μl by physiological saline buffer. The diluted samples and specific slides (cholesterol, ALT and AST) were then loaded into the analyzer for automatic analysis.

[1] = test system: Sqle tg mice fed with a HFHC diet; assay: NASH development in HFHC-fed Sqle tg mice; type: in vivo
Method: as §1, with “model. 2 mg tissues were harvested, and liver cholesterol levels were detected by Cholesterol/Cholesteryl Ester Quantification kit (ab65359, Abcam) according to manufacturer's instructions. All experiments were conducted three times in triplicates. Results were shown as the means±SEM. 100 mg tissues were harvested, and liver triglyceride levels were detected by triglyceride Quantification kit (ab65336, Abcam) according to manufacturer's instructions. All experiments were conducted three times in triplicates. Results were shown as the means±SEM.” for “model.”, “analysis. For the glucose tolerance test, mice were fasted overnight by transferring mice to clean cages with no food or feces in upper or bottom of cage. Mice were then injected intraperitoneally with 0.75 U insulin per kg body weight (ITT) or 1 g glucose per kg body weight (GTT) in water. Blood from the tail vein was obtained before the injection and at 30, 60 and 90 min after the injection for determination of blood glucose using Glucose Meter.” for “analysis.”

HepG2 xenografts = assay: Subcutaneous HepG2 xenograft nude mice model; type: in vivo, Balb/c nude mice
Method: A xenograft human liver cancer mouse model was established using HepG2 cells. HepG2 cells (1×10^7 cells in 0.1 ml PBS) were injected subcutaneously into the left dorsal flank of 4-week-old male Balb/c nude mice. Once the subcutaneous tumors reached about 100 mm^3, these mice were divided into vehicle group (PBS, p.o.) and terbinafine group (80 mg/kg, p.o.) randomly. Tumor diameter was measured every days for 10 days. For survival analysis, tumor diameter was measured every two days for 40 days. Tumor volume (mm^3) was estimated by measuring the longest and shortest diameter of the tumor and calculating as follows: volume=(shortest diameter)^2×(longest diameter)×0.5. Care of animals and all experimental procedures were approved by the Animal Ethics Committee of the Chinese University of Hong Kong. After more than 2 weeks, the mice were sacrificed, and the tumors were weighed and fixed in formalin for histological analysis. […]
(§2) 10^6 cells or 2 mg tissues were harvested, and cholesterol/cholesteryl ester levels were detected by Cholesterol/Cholesteryl Ester Quantification kit (ab65359, Abcam) according to manufacturer's instructions. All experiments were conducted three times in triplicates. Results were shown as the means±SEM.

HKCI10 [2] = assay: Cell growth, cell viability (MTS) assay; type: cell-based; settings: 25 μM to 50 μM
Method: (§3) 2 NAFLD-HCC cell lines (HKCI2, HKCI10) and one liver cancer cell line HepG2 were used in this study. Cell lines were maintained in RPMI-1640 or DMEM medium (Gibco BRL, Rockville, Md.) with 10% fetal bovine serum.
(§4) Cell viability was determined by the 3-(4,5-dimethylthiazol-2-yl)-5-(3-carboxyme-thoxyphenyl)-2-(4-sulfophenyl)-2H-tetrazolium (MTS) assay (Promega, Madison, Wis.).

HepG2 [3] = assay: Colony formation assay; type: cell-based, human; settings: 25 μM to 50 μM
Method: as §3
(§5) For cell colony formation assay, liver cancer cells (1000/well) were plated in 6-well plates. Different dose of Terbinafine were added to these cells at the second day. After culturing for 5-7 days, cells were fixed with 70% ethanol and stained with 0.5% crystal violet solution. Colonies with more than 50 cells per colony were counted. All experiments were conducted three times in triplicates.

HKCI2 [4] = assay: Colony formation assay; type: cell-based, human; settings: 25 μM to 50 μM
Method: as §3, §5

[5] = test system: orthotopic HKCI2 xenografts; assay: Orthotopic HKCI2 xenograft (human NAFLD-HCC) nude mice model; type: in vivo, Balb/c nude mice
Method: An orthotopic human NAFLD-HCC mouse model was established using HKCI2 cells. HKCI2 cells (1×10^7 cells in 0.1 ml PBS) were injected subcutaneously into the left dorsal flank of 4-week-old male Balb/c nude mice. Subcutaneous tumors were harvested once they reached about 10 mm^3 and cut into 1.0 mm^3 pieces. One piece of a tumor was implanted into the left liver lobe in a separate group of nude mice (4-week-old). Four weeks after implantation, these mice were divided into vehicle group (PBS, p.o.) and terbinafine group (80 mg/kg, p.o.). Eight weeks post-implantation, the mice were sacrificed and examined. 10^6 cells or 2 mg tissues were harvested, and cholesterol/cholesteryl ester levels were detected by Cholesterol/Cholesteryl Ester Quantification kit (ab65359, Abcam) according to manufacturer's instructions. All experiments were conducted three times in triplicates. Results were shown as the means±SEM.

[6] = test system: Sqle tg mice injected with DEN and fed with a HFHC diet; type: in vivo
Method: Sqle tg mice injected with DEN (10 days of age) and fed with a HFHC diet (6 weeks of age). At 20 weeks of age, the mice will be randomized into two group and treated with either vehicle or Terbinafine (80 mg/kg/d, oral gavage). After 8 weeks terbinafine treatment, mice will be sacrificed to examine the therapeutic effect of Terbinafine. […]
The serum cholesterol, TG, ALT and AST level were detected by the Catalyst One Chemistry Analyzer according to the manufacturer's instructions (IDEXX, USA). Thirty microliters of serum from wild-type or Sqle tg mice were diluted to 90 μl by physiological saline buffer. The diluted samples and specific slides (cholesterol, ALT and AST) were then loaded into the analyzer for automatic analysis. […]

SQLE and PCNA expression = assay: Western blot of SQLE and PCNA expression in treated cells; type: cell-based
HCC cell lines = assay: Cholesterol/cholesteryl ester levels in cells; type: cell-based
Method: as §2

HepG2 [7] = assay: Cell growth, cell viability (MTS) assay; type: cell-based, human; settings: 25 μM to 50 μM
Method: as §3, §4

HKCI2 [8] = assay: Cell growth, cell viability (MTS) assay; type: cell-based, human; settings: 25 μM to 50 μM
Method: as §3, §4

HKCI10 [9] = assay: Colony formation assay; type: cell-based; settings: 25 μM to 50 μM
Method: as §3, §5

[10] = 80 mg/kg/d oral gavage, 8 weeks
[11] = 80 mg/kg/d oral gavage, 9 weeks
[12] = subcutaneous HepG2 xenografts, 80 mg/kg/d, p.o.
[13] = DEN-injected HFHC-fed Sqle tg mice
[14] = livers of Sqle tg mice, western blot

Compound: CN(C/C=C/C#CC(C)(C)C)Cc1cccc2ccccc12 [terbinafine]
- HFHC-induced serum cholesterol (HFHC-fed WT mice): attenuated
- liver steatosis (H&E staining and free fatty acid assay) (HFHC-fed WT mice): reduction
- serum ALT level (HFHC-fed WT mice): attenuated
- serum AST level (HFHC-fed WT mice): attenuated
- serum triglyceride (HFHC-fed WT mice): attenuated
- body weight (HFHC-fed WT mice; [10]): significantly decrease
- liver weight (HFHC-fed WT mice; [10]): significantly decrease
- insulin sensitivity (ITTs) [1]: markedly improved
- liver cholesterol level [1]: significantly decreased
- liver free fatty acid accumulation [1]: significantly decreased
- liver triglyceride [1]: significantly decreased
- serum ALT level [1]: significantly decreased
- serum AST level [1]: significantly decreased
- serum triglyceride [1]: significantly decreased
- body weight gain [1, 11]: significantly attenuated
- liver weight [1, 11]: significantly attenuated
- liver/body weight ratio [1, 11]: significantly attenuated
- liver inflammation and fibrosis level (mRNA expression of inflammation and fibrosis mediators) ([1]; qPCR): reduced
- steatohepatitis (H&E staining of livers) ([1]; vs PBS control): reduction
- suppression of growth of subcutaneous HepG2 xenografts (HepG2 xenografts; 80 mg/kg, p.o., P<0.01): 77.8%
- tumor cholesteryl ester levels (HepG2 xenografts; HepG2 xenografts): suppressed
- tumor free cholesterol levels (HepG2 xenografts; HepG2 xenografts): suppressed
- tumor volume (HepG2 xenografts; [12]): significant reductions
- tumor weight (HepG2 xenografts; [12]): significant reductions
- overall survival of mice harboring HepG2 xenografts (HepG2 xenografts; tumor size 400 mm^3 as cutoff, P<0.01): significantly prolonged
- cell lines proliferation by cell growth assay (HKCI10 [2]): markedly suppressed
- cell lines proliferation by colony formation assay (HepG2 [3]): markedly suppressed
- cell lines proliferation by colony formation assay (HKCI2 [4]): markedly suppressed
- suppression of growth of orthotopic HKCI2 xenografts ([5]; 80 mg/kg, p.o., both in terms of tumor size or tumor weight, P<0.01): > 85%
- tumor cholesteryl ester levels ([5]; HKCI2 xenografts): suppressed
- tumor free cholesterol levels ([5]; HKCI2 xenografts): suppressed
- tumor number ([6]; 80 mg/kg/d oral gavage, 8 weeks, P<0.01): significantly reduced
- tumor incidence ([6]; 80 mg/kg/d oral gavage, 8 weeks, vs 8/9 mice in PBS, P<0.05): 4/9
- NADP^+/NADPH ratio [6, 13]: reducing
- liver cholesterol levels [6, 13]: decreased
- liver/body weight ratio [6, 13]: decreased
- serum cholesterol levels [6, 13]: decreased
- Dnmt3a protein expression [6, 14]: inhibited
- Pten expression [6, 14]: restored
- Sqle protein expression [6, 14]: inhibited
- HCC tumorigenesis and cell proliferation (H&E and Ki-67 staining of livers) ([6]; vs vehicle): reduction
- PCNA expression (SQLE and PCNA expression): suppressed
- SQLE expression (SQLE and PCNA expression): suppressed
- cholesteryl ester levels (HCC cell lines): suppressed
- free cholesterol levels (HCC cell lines): suppressed
- cell lines proliferation by cell growth assay (HepG2 [7]): markedly suppressed
- cell lines proliferation by cell growth assay (HKCI2 [8]): markedly suppressed
- cell lines proliferation by colony formation assay (HKCI10 [9]): markedly suppressed

— patent US11340226B2, “Squalene epoxidase in the diagnosis and treatment of non-alcoholic fatty liver diseases” (priority 2018, dated 2022)
